pIC50, pKd, pKi: −log10 of the molar value. Where “and” joins values, the source holds several entries; their conditions need not be identical. Equal entries are not always repeated.
Columns and labels:
[1] = test system: intracellular PAP in wild type yeast; test: Intracellular PAP concentration by GST-PST binding assay, wild type yeast; assay type: cell-based, S. cerevisiae
Procedure: (§1) Yeast were grown in CM/ura^− containing 2% galactose to mid-log phase. The cultures were washed extensively and resuspended in the CM/ura^−/met^− media with the noted inclusions. PAP was measured using the ligand binding assay described in Experimental Procedures. Intracellular PAP concentrations were normalized to the amount of soluble protein extracted from the cultures.
For the assay of intracellular PAP concentrations, appropriate yeast strains were grown in CM/ura^− to mid-log phase (OD600=1.0). The cells were centrifuged and washed extensively in sterile water. The cells were resuspended in CM/ura^−/met^− containing methionine (20 μg/ml), lithium, or chlorate as appropriate. The cultures were incubated with shaking at 30° C. At various time points, 2 ml of culture was removed and centrifuged. The cells were washed with 1 ml of water. 250 μl was centrifuged and resuspended in 200 μl K-lysis buffer. 200 μl of glass beads were added, and the cells were disrupted by vigorous bead beating. The amount of soluble protein in this extract was determined using a Bradford dye-binding assay (BioRad, Hercules, Calif., United States of America) with bovine serum albumin as a standard. The remaining 750 μl of washed cells was spun down and resuspended in 250 μl of 2 N HClO4. This was incubated at 4° C. for 20 min, when 250 μl of 1.8 N KOH, 0.4 N KHCO3 were added to neutralize and precipitate the HClO4. The extract was centrifuged at 4° C. to remove the debris, and the supernatant was lyophilized using a rotary evaporator. The dried extracts were frozen at −80° C. for no more than one week prior to use. Extracts were reconstituted in 100 μL of 200 mM HEPES, pH 7.5 and again centrifuged to remove debris. 5′ [^32P] 3′, 5′ PAP was created as described (Spiegelberg, 1999). The GST-PST assay was performed by mixing 10 μL of standard PAP, treated as above, or 10 μL of sample diluted approximately 1:1000 in K-lysis buffer, with 10 μL of radiolabeled PAP (approximately 10,000 CPM). Eighty microliters of a reaction mix containing 100 mM HEPES, pH 7.0, 5 mM DTT, 0.2 mg/ml BSA, and 1 μg of GST-PST were added to start the binding reaction. The reactions were allowed to equilibrate for at least one hour at room temperature. Following incubation, 20 μl of a 50:50 slurry of glutathione sepharose in K-lysis buffer was added. The tubes were incubated with gentle mixing for 10 min at room temperature. The protein with bound PAP was pulled down by centrifugation for 2 min at room temperature. 80 μl of the supernatant, containing free PAP, was removed to a scintillation vial and 200 μl of K-lysis buffer was added to wash the resin. The tubes were centrifuged again and the 200 μl wash was transferred to the original scintillation vials. Radioactivity was determined by adding 5 ml of […] ECONO2™ scintillation fluid (Fisher Scientific, Hampton, N.H., United States of America) and counted in a liquid scintillation counter. The counts were converted to percent isotope bound, and a standard curve was prepared by plotting percent bound vs. the logarithm of the PAP concentration. […]
The GST-PST binding assay was used to determine relative intracellular PAP concentrations in yeast strains grown under various conditions. The PAP concentration determined in the binding assay was normalized to the total soluble protein in parallel extracts, and background was eliminated by reporting only the signal that was sensitive to in vitro degradation by purified recombinant Hal2p. […]

[2] = test system: intracellular PAP in met3Δ cells; assay type: cell-based, S. cerevisiae
Procedure: as §1
(§2) For the assay of intracellular PAP concentrations, appropriate yeast strains were grown in CM/ura^− to mid-log phase (OD600=1.0). The cells were centrifuged and washed extensively in sterile water. The cells were resuspended in CM/ura^−/met^− containing methionine (20 μg/ml), lithium, or chlorate as appropriate. The cultures were incubated with shaking at 30° C. At various time points, 2 ml of culture was removed and centrifuged. The cells were washed with 1 ml of water. 250 μl was centrifuged and resuspended in 200 μl K-lysis buffer. 200 μl of glass beads were added, and the cells were disrupted by vigorous bead beating. The amount of soluble protein in this extract was determined using a Bradford dye-binding assay (BioRad, Hercules, Calif., United States of America) with bovine serum albumin as a standard. The remaining 750 μl of washed cells was spun down and resuspended in 250 μl of 2 N HClO4. This was incubated at 4° C. for 20 min, when 250 μl of 1.8 N KOH, 0.4 N KHCO3 were added to neutralize and precipitate the HClO4. The extract was centrifuged at 4° C. to remove the debris, and the supernatant was lyophilized using a rotary evaporator. The dried extracts were frozen at −80° C. for no more than one week prior to use. Extracts were reconstituted in 100 μL of 200 mM HEPES, pH 7.5 and again centrifuged to remove debris. 5′ [^32P] 3′, 5′ PAP was created as described (Spiegelberg, 1999). The GST-PST assay was performed by mixing 10 μL of standard PAP, treated as above, or 10 μL of sample diluted approximately 1:1000 in K-lysis buffer, with 10 μL of radiolabeled PAP (approximately 10,000 CPM). Eighty microliters of a reaction mix containing 100 mM HEPES, pH 7.0, 5 mM DTT, 0.2 mg/ml BSA, and 1 μg of GST-PST were added to start the binding reaction. The reactions were allowed to equilibrate for at least one hour at room temperature. Following incubation, 20 μl of a 50:50 slurry of glutathione sepharose in K-lysis buffer was added. The tubes were incubated with gentle mixing for 10 min at room temperature. The protein with bound PAP was pulled down by centrifugation for 2 min at room temperature. 80 μl of the supernatant, containing free PAP, was removed to a scintillation vial and 200 μl of K-lysis buffer was added to wash the resin. The tubes were centrifuged again and the 200 μl wash was transferred to the original scintillation vials. Radioactivity was determined by adding 5 ml of […] ECONO2™ scintillation fluid (Fisher Scientific, Hampton, N.H., United States of America) and counted in a liquid scintillation counter. The counts were converted to percent isotope bound, and a standard curve was prepared by plotting percent bound vs. the logarithm of the PAP concentration. This standard curve was used to back-calculate the PAP concentration in the unknown samples.
(§3) The GST-PST binding assay was used to determine relative intracellular PAP concentrations in yeast strains grown under various conditions. The PAP concentration determined in the binding assay was normalized to the total soluble protein in parallel extracts, and background was eliminated by reporting only the signal that was sensitive to in vitro degradation by purified recombinant Hal2p. The assay was characterized further by analyzing the intracellular PAP concentration of wild type yeast grown in the presence of lithium.

[3] = test system: intracellular PAP in met14Δ cells; assay type: cell-based, S. cerevisiae
Procedure: as §1, §2, §3

cultured IMCD cells = test: cAMP production during stimulation of cultured IMCD cells; assay type: cell-based, mouse; details: lithium present
Wild type yeast = test: Lithium inhibition of yeast growth (OD600), wild type; assay type: cell-based, S. cerevisiae; details: CM/ura−/met−, 24 hr at 30° C.
Procedure: FIG. 7 is a graph showing met3Δ and met14Δ strains are lithium resistant. Wild type, met3Δ, and met14Δ yeast were resuspended at 5×10^4/ml in CM/ura^− containing 2% dextrose and 1.25 μg/ml methionine. Growth at various concentrations of LiCl was measured after a 24 hr incubation at 30° C. The growth is plotted relative to growth in media lacking lithium.
FIG. 10 is a graph showing methionine supplementation induces lithium resistance. Wild type yeast were inoculated at 5×10^4 cells per ml into synthetic media with or without methionine containing the noted concentration of LiCl. Growth was assayed by spectrophotometry following 48 hrs of growth at 30° C.
Wild type yeast were grown in CM/ura^− containing 2% galactose to mid-log phase. The cultures were washed and resuspended at 5×10^5 cells/ml in CM/ura^−/met^− containing the noted lithium and chlorate concentrations. Following growth for 24 hr at 30° C., the cultures were resuspended, and growth was measured by determining the absorbance at λ=600 nm.
Since methionine effects transcriptional down regulation of the MET3 and MET14 gene products in wild type yeast, the relative lithium sensitivities of the met3Δ and met14Δ strains were assayed in growth media containing reduced methionine (1.25 μg/ml). The use of limited methionine allowed for the comparison of the relative sensitivity to lithium of yeast expressing (wild type) or lacking (met3Δ and met14Δ) PAPS synthetase activities.
The yeast system was used to determine if chlorate could be used to effect a relevant decrease in the accumulation of PAP in the presence of lithium. […] The decrease in PAP accumulation was physiologically relevant since chlorate produced a protective effect in the presence of lithium. […] When 25 mM NaClO3 is included in the culture medium, the growth inhibition is abated, with the IC50 increasing to approximately 80 mM LiCl (FIG. 11)

BPntase = details: cited from earlier work
[4] = target: T1, GST-PST (mouse phenol-preferring sulfotransferase fused to GST) (Mus musculus, UniProt P52840); test: Binding of radiolabeled PAP to GST-PST (Scatchard); details: 100 nM purified GST-PST; Scatchard plot
T1 construct: The PST open reading frame was subcloned into the BamHI and NotI sites of pGEX4T-1; made in house; host or cells: bacteria (pGEX4T-1)
T1 sequence (P52840 whole entry, the tested form may be a part): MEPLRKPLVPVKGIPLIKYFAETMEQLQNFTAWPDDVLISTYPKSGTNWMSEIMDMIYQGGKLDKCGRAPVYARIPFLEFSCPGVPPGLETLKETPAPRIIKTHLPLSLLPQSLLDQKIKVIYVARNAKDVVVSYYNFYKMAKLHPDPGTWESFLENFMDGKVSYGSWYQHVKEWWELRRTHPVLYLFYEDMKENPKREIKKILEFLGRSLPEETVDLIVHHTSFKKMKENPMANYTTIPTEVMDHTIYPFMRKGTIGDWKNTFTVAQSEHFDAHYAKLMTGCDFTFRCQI
Procedure: FIG. 8 is a graph showing binding of PAP to GST-PST. Binding of radiolabeled PAP to 100 nM purified GST-PST was assayed in the presence of various concentrations of unlabeled PAP. […] The data are linear and intersect the y-axis at [Sb]/[Sf]=2.8.
Measurement of intracellular PAP concentrations. A novel isotope binding competition assay was developed to measure intracellular concentrations of PAP. The concentration of PAP in lysates was determined by the binding of radiolabeled PAP to the enzyme phenol (aryl) sulfotransferase (PST), which uses PAP as a cofactor (Yang, 1996b). […] The open reading frame was amplified by PCR using the primers 5′ […] (SEQ ID NO: 15) and 5′ […] (SEQ ID NO: 16) where the underlined sequences correspond to sequence in the PST open reading frame. The PCR product was gel purified and ligated into the pCR2.1 vector. […] The PST open reading frame was subcloned into the BamHI and NotI sites of pGEX4T-1 to create a bacterial expression vector in which PST was expressed in frame downstream of GST (GST-PST). […]
For the assay of intracellular PAP concentrations, appropriate yeast strains were grown in CM/ura^− to mid-log phase (OD600=1.0). […] The amount of soluble protein in this extract was determined using a Bradford dye-binding assay (BioRad, Hercules, Calif., United States of America) with bovine serum albumin as a standard. […]

adenylate cyclase = details: preparations of native adenylate cyclase-containing membranes; P-site inhibitor; read-out: IC50 for inhibition of adenylate cyclase; cited from earlier work

In the case of `CSCC[C@H](N)C(=O)O` [methionine], the “Intracellular PAP concentration with methionine” value ([1]; wild type, lithium present, methionine 20 μg/ml in media) was 2.3 nmol/mg, the “Effect of methionine on PAP accumulation” value ([2]; met3Δ expressing hPAPSS2 from galactose-inducible vector, lithium present) was “little effect” and the “Effect of methionine on PAP accumulation” value ([3]; met14Δ expressing hPAPSS2 from galactose-inducible vector, lithium present) was “little effect”.

For `[O-][Cl+2]([O-])O` [chlorate], the “Fold PAP accumulation with chlorate” value ([1]; wild type, 100 mM lithium plus 25 mM NaClO3) was 30.8 fold, the “Effect of chlorate on lithium-dependent PAP accumulation / production” value ([1]; yeast, lithium present) was “inhibited production of PAP in vivo” and the “Effect of chlorate on accumulation of cAMP” value (cultured IMCD cells) was “partially restored”. For the same compound, the “Fold PAP accumulation with chlorate” value ([2]; met3Δ expressing hPAPSS2, 100 mM lithium plus 25 mM NaClO3) was 27.0 fold, the “Fold PAP accumulation with chlorate” value ([3]; met14Δ expressing hPAPSS2, 100 mM lithium plus 25 mM NaClO3) was 22.1 fold and the “Effect of chlorate on sensitivity of yeast growth to lithium” value (Wild type yeast) was “reduces sensitivity”.

For `Nc1ncnc2c1ncn2[C@@H]1O[C@H](COP(=O)(O)OS(=O)(=O)O)[C@@H](OP(=O)(O)O)[C@H]1O` [3′-phosphoadenosine 5′-phosphosulfate], the “Vmax of BPntase substrate” value (BPntase; removal of 3′-phosphate) is listed as 40 µmol/min/mg and the Km (BPntase; removal of 3′-phosphate, read-out: Km of BPntase substrate) is listed as 500 nM.

In the case of `O=P(O)(O)O[C@H]1[C@H](O)[C@@H](O)[C@H](OP(=O)(O)O)[C@@H](O)[C@H]1O` [inositol 1,4-bisphosphate], the pKi (BPntase; read-out: Ki, competitive inhibition of BPntase) is given as 4.82.

In the case of `Nc1ncnc2c1ncn2[C@@H]1O[C@H](COP(=O)(O)O)[C@@H](OP(=O)(O)O)[C@H]1O` [PAP, 3′-phosphoadenosine 5′-phosphate], the pKd [4] is listed as ~7.46 and 7.45 and the pIC50 (adenylate cyclase) is listed as ~4.30.

Source: patent US20050037450A1, “Novel targets for lithium therapy” (Duke University, priority 2002, published 2005)
